Earlier results in patent US20080038252A1, “Histamine-Containing Composition for the Treatment of Allergic Diseases” (priority 2005, published 2008).

Tested on: allergy animal model
Conditions: same amount as in the complex, administered alone to the allergy animal model (Yoshii)

NCCc1c[nH]cn1 [histamine]
anti-inflammatory effect: not produced
